Data reported in US8691820B2, “CDK inhibitors” (Curis, Inc., priority 2008, dated 2014).

What follows are molecules tested against T1, CDK2/cyclinA (Homo sapiens, UniProt P24941) (assay: CDK2 kinase assay (33P-ATP, Histone H1 substrate)). Conditions: 1 μM ATP, 5 μM Histon H1, 2 hours at room temperature.
T1 construct: C-terminal 6His-tagged human full length cdk2 (MW=35 kDa); 6His (C); made in house; host or cells: Sf21 insect cells (baculovirus)
Format: biochemical
Text: CDK2/cyclinA (Accession number for CDK2; EMBL M68520, for cyclin A; EMBL X51688): C-terminal 6His-tagged human full length cdk2 (MW=35 kDa), and N-terminal GST-tagged human full length cyclin A (MW=75 kDa) were expressed individually with baculovirus system in Sf21 insect cells. Recombinant cdk2 protein was purified with Ni2+/NTA agarose and then activated using CAK and repurified by Q Sepharose and Ni2+/NTA agarose. Recombinant cyclin A was purified using glutathione-agarose. They were then mixed in vitro to form protein complex. Recombinant protein complex was measured to be 67% in purity with SDS-PAGE and Coomassie blue staining. Specific activity of purified enzyme was measured to be 158 U/mg, where one unit of cdk2/cyclinA activity is defined as 1 nmol phosphate incorporated into 0.1 mg/ml histone H1 per minute at 30° C. with a final ATP concentration of […]. Enzyme was stored at a concentration of 0.1 mg/ml in 50 mM Tris/HCl pH7.5, 150 mM NaCl, 0.1 mM EGTA, 0.03% Brij-35, 270 mM sucrose, 1 mM benzamidine, 0.2 mM PMSF, 0.1% 2-mercaptoethanol. Frozen solution.
Histon H1 (Substrate for CDK2): Histone H1 (Sigma cat#H4524), was purified as a lysine rich fraction from calf thymus with 93% purity (MW=21.5 kDa). Purified protein was stored at a concentration of 20 mg/ml=930 μM in distilled water.
[…] (0.5 nmol) and 5 μM Histon H1 were mixed in the reaction buffer (20 mM HEPES (pH 7.5), 10 mM MgCl2, 1 mM EGTA, 0.02% Brij 35, 0.02 mg/ml BSA, 0.1 mM Na3VO4, 2 mM DTT) with final concentration of 1 μM ATP and 1% DMSO. The reaction was incubated for 2 hours at room temperature and conversion rate of ATP is about 4.5%. An equal volume of 25% TCA was added to stop the reaction and precipitate the labeled peptides. Precipitated proteins were trapped onto glass fiber B filterplates and excess […] p33 ATP was washed off. The plates were allowed to air-dry prior to the addition of 30 uL/well of Packard Microscint 20. The amount of incorporated isotope was measured using a Perkin Elmer TopCount plate reader. Different concentrations of compounds were added to reaction to assess the activity of compounds to inhibit […]. IC50 was calculated using Prism software with sigmoidal dose-response curve fitting.
The following TABLE B lists compounds representative of the invention and their activity in the CDK2 assay. In this assay, the following grading was used: I≧10 μM, 10 μM>II>1 μM, 1 μM>III>0.1 μM, and IV≦0.1 μM for IC50.

SMILES	IC50
CN(O)C(=O)/C=C/c1ccc(C(=O)Nc2ncc(SCc3ncc(C(C)(C)C)o3)s2)cc1 [Compound 39, (E)-N-(5-((5-tert-butyloxazol-2-yl)methylthio)thiazol-2-yl)-4-(3-(hydroxy(methyl)amino)-3-oxoprop-1-enyl)benzamide]	1000 to 10000 nM
CC(C)(C)c1cnc(CSc2cnc(NC(=O)CCCCCCC(=O)Nc3nc4ccccc4[nH]3)s2)o1 [Compound 47]	≤ 100 nM
CC(C)(C)c1cnc(CSc2cnc(NC(=O)CCCCCCC(=O)n3nc(N)c4ccccc43)s2)o1 [Compound 48]	≤ 100 nM
CC(C)(C)c1cnc(CSc2cnc(NC(=O)CCCCCCC(=O)Nc3c[nH]c4ccccc34)s2)o1 [Compound 50]	≤ 100 nM
CN1OC(=O)CC1c1ccc(C(=O)Nc2ncc(SCc3ncc(C(C)(C)C)o3)s2)cc1 (stereo not shown) [Compound 51, N-(5-((5-tert-butyloxazol-2-yl)methylthio)thiazol-2-yl)-4-(2-methyl-5-oxoisoxazolidin-3-yl)benzamide]	≤ 100 nM
CC(C)(C)c1cnc(CSc2cnc(NC(=O)CCCCCCC(=O)Nc3cc(-c4cccs4)n[nH]3)s2)o1 [Compound 52]	≤ 100 nM
CC(C)(C)c1cnc(CSc2cnc(NC(=O)Oc3ccc(OCCCC(=O)Nc4ccccc4N)cc3)s2)o1 [Compound 54, 4-(4-(2-Aminophenylamino)-4-oxobutoxy)phenyl 5-((5-tert-butyloxazol-2-yl)methylthio)thiazol-2-ylcarbamate]	≤ 100 nM
CC(C)(C)c1cnc(CSc2cnc(NC(=O)Cc3cccc(OCCCC(=O)Nc4ccccc4N)c3)s2)o1 [Compound 56, N-(2-aminophenyl)-4-(3-(2-(5-((5-tert-butyloxazol-2-yl)methylthio)thiazol-2-ylamino)-2-oxoethyl)phenoxy)butanamide]	≤ 100 nM
CC(C(=O)Nc1ncc(SCc2ncc(C(C)(C)C)o2)s1)c1ccc(OCCCC(=O)Nc2ccccc2N)cc1 (stereo not shown) [Compound 57, N-(2-aminophenyl)-4-(4-(1-(5-((5-tert-butyloxazol-2-yl)methylthio)thiazol-2-ylamino)-1-oxopropan-2-yl)phenoxy)butanamide]	≤ 100 nM
CC(Sc1cnc(NC(=O)Cc2ccc(OCCCC(=O)Nc3ccccc3N)cc2)s1)c1ncc(C(C)(C)C)o1 (stereo not shown) [Compound 58, N-(2-aminophenyl)-4-(4-(2-(5-(1-(5-tert-butyloxazol-2-yl)ethylthio)thiazol-2-ylamino)-2-oxoethyl)phenoxy)butanamide]	≤ 100 nM

Results, then the molecule that gave them:

IC50	SMILES
≤ 100 nM	CC(C)(C)c1cnc(CSc2cnc(NC(=O)CCCCCCC(=O)n3nnc4ccccc43)s2)o1 [Compound 40, 8-(1H-benzo[d][1,2,3]triazol-1-yl)-N-(5-((5-tert-butyloxazol-2-yl)methylthio)thiazol-2-yl)-8-oxooctanamide]
≤ 100 nM	CC(C)(C)c1cnc(CSc2cnc(NC(=O)CCCCCCC(=O)Nc3n[nH]c4ccccc34)s2)o1 [Compound 41]
≤ 100 nM	CC(C)(C)c1cnc(CSc2cnc(NC(=O)CCCCCCC(=O)Nc3cn[nH]c3)s2)o1 [Compound 42, N^1-(5-((5-tert-butyloxazol-2-yl)methylthio)thiazol-2-yl)-N^8-(1H-pyrazol-4-yl)octanediamide]
≤ 100 nM	CC(C)(C)c1cnc(CSc2cnc(NC(=O)CCCCCCC(=O)n3ncc(-c4ccc(F)cc4)c3N)s2)o1 [Compound 44, 8-(5-amino-4-(4-fluorophenyl)-1H-pyrazol-1-yl)-N-(5-((5-tert-butyloxazol-2-yl)methylthio)thiazol-2-yl)-8-oxooctanamide]
≤ 100 nM	CC(C)(C)c1cnc(CSc2cnc(NC(=O)CCCCCCC(=O)Nc3[nH]ncc3-c3ccc(F)cc3)s2)o1 [Compound 45]
≤ 100 nM	CC(C)(C)c1cnc(CSc2cnc(NC(=O)CC3Nc4ccccc4NC3=O)s2)o1 (stereo not shown) [Compound 46, N-(5-((5-tert-butyloxazol-2-yl)methylthio)thiazol-2-yl)-2-(3-oxo-1,2,3,4-tetrahydroquinoxalin-2-yl)acetamide]
